Source: patent US10442815B2, “Tricyclic heterocyclic compounds as phosphoinositide 3-kinase inhibitors” (Karus Therapeutics Limited, priority 2015, dated 2019)

Key:
PI3K p110α [1] = molecular target: T1, PI3K p110α (Homo sapiens, UniProt P42336); assay: IC50 determination, HTRF biochemical assay (Reaction Biology Corp.)
T1 construct: assay run at Proqinase GmbH
Source text: (§1) Biochemical activity against class I PI3K isoforms was confirmed by either Ki determination using the non-radiometric ADP-Glo™ assay (Promega, Madison, Wis., USA) at Proqinase GmbH, or IC50 determination using the HTRF biochemical assay at Reaction Biology Corp.

PI3K p110β [2] = molecular target: T2, PI3K p110β (Homo sapiens, UniProt P42338); assay: as above
T2 construct: assay run at Proqinase GmbH
T2 sequence (P42338 whole entry): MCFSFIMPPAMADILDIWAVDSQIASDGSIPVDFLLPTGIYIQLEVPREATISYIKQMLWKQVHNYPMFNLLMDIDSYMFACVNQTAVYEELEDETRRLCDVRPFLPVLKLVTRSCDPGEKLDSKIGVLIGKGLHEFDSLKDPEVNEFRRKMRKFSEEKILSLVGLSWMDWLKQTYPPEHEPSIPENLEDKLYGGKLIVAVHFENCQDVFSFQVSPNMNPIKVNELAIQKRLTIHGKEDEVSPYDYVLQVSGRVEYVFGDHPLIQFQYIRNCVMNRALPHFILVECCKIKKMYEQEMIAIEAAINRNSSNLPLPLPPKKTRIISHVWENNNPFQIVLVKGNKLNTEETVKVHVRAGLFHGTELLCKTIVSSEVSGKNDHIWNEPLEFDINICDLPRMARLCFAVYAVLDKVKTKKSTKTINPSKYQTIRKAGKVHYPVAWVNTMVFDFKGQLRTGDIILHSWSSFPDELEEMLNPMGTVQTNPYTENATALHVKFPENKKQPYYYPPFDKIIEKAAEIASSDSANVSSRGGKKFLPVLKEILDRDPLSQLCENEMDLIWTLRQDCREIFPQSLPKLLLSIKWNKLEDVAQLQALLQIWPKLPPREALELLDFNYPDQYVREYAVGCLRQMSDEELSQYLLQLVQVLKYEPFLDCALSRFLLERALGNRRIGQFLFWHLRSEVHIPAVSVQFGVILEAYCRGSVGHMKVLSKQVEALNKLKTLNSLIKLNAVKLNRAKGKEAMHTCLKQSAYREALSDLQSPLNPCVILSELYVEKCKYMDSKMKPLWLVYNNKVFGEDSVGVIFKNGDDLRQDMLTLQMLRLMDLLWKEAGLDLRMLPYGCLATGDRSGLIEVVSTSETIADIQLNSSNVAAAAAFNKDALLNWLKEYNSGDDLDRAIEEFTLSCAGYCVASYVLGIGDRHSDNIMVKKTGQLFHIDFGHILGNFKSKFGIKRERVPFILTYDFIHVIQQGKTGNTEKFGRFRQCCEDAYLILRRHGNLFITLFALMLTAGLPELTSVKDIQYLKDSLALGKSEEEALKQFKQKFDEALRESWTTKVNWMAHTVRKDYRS
T2 sequence (P27986 whole entry partner): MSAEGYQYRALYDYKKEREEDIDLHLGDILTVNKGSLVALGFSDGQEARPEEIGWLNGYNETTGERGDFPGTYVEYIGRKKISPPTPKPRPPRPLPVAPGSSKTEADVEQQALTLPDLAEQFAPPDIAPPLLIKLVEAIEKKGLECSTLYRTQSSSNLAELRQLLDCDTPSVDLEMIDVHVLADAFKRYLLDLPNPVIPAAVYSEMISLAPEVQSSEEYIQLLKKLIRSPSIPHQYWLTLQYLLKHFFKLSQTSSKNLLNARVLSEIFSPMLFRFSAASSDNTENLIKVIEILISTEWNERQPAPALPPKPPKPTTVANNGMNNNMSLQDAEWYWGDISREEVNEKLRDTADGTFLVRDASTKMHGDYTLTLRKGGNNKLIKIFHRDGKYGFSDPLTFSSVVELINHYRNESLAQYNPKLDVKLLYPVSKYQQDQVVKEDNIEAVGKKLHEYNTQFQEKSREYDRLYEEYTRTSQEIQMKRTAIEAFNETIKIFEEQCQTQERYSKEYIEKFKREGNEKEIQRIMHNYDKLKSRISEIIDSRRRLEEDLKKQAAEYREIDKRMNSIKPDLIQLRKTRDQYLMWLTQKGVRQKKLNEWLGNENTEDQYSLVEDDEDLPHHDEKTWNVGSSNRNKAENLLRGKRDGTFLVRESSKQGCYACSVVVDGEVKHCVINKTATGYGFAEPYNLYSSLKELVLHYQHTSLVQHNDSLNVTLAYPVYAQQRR
Source text: as §1

PI3K p110γ [3] = molecular target: T3, PI3K p110γ (Homo sapiens, UniProt P48736); assay: as above
T3 construct: assay run at Proqinase GmbH
T3 sequence (P48736 whole entry): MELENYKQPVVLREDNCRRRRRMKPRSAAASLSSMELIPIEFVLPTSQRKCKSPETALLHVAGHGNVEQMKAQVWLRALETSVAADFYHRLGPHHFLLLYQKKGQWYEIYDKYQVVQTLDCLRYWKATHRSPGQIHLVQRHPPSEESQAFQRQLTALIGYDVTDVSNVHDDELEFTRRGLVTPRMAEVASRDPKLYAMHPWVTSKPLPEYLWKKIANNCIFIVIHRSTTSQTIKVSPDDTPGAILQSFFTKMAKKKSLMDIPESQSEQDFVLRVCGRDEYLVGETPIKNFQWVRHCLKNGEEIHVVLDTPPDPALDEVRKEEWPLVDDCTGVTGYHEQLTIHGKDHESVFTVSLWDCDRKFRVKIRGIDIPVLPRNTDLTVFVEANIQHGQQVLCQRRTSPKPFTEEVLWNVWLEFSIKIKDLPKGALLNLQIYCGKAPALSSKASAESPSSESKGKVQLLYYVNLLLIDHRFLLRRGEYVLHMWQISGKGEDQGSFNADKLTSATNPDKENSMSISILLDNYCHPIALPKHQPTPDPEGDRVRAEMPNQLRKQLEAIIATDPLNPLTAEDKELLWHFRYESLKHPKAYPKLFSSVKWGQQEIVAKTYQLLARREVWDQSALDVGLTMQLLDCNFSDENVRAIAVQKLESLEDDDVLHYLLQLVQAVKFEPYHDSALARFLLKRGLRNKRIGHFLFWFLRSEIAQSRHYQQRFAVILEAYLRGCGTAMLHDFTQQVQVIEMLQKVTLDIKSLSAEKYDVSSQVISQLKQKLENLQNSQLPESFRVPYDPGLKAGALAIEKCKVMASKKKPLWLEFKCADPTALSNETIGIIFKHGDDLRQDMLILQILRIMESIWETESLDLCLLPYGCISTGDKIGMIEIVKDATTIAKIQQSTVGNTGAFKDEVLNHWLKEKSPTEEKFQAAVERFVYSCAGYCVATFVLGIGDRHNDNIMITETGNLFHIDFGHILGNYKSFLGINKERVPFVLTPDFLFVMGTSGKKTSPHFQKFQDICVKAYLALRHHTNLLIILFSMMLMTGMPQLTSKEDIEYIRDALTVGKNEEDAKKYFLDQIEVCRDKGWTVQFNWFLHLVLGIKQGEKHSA
Source text: as §1

PI3K p110δ [4] = molecular target: T4, PI3K p110δ (Homo sapiens, UniProt O00329); assay: as above
T4 construct: assay run at Proqinase GmbH
T4 sequence (O00329 whole entry): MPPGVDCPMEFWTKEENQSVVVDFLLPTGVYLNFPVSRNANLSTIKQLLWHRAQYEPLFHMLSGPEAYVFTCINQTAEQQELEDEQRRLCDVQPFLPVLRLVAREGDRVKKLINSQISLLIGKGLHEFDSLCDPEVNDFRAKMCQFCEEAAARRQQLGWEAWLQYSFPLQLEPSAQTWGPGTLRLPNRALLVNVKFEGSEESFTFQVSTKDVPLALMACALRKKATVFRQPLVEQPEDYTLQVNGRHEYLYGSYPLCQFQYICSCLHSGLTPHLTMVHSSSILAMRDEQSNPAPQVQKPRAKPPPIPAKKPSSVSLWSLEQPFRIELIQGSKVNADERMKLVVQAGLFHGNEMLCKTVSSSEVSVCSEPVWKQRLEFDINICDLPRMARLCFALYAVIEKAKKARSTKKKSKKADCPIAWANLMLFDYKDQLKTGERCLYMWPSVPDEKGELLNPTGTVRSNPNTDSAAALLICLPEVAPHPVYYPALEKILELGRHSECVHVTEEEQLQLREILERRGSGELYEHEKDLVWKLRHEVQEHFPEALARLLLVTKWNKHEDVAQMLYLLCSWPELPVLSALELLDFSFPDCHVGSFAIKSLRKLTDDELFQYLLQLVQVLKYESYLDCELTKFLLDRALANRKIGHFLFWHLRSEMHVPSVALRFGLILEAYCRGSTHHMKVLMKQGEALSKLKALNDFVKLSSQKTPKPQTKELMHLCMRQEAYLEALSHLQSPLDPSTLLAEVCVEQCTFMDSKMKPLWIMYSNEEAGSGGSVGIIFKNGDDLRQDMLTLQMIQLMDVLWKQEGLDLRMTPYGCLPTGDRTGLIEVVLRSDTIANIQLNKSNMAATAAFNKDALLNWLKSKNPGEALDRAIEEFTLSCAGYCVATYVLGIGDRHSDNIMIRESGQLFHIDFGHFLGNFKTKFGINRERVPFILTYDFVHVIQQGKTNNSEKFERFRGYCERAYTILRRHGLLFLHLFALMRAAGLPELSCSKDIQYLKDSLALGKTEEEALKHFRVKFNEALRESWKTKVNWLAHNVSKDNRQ
T4 sequence (P27986 whole entry partner): as the sequence (P27986 whole entry partner) above
Source text: as §1

[5] = Plasma PK of compound K of WO 2011/021038 in male Balb/c mice; format: in vivo, mouse; details: for F: PO 10 mg/kg vs IV 3 mg/kg, male Balb/c mouse
Description: Animals in Group 1 were administered intravenously with compound K solution formulation in 5% NMP, 5% solutol HS-15 and 90% normal saline via tail vein at a dose of 3 mg/kg.
Animals in Group 2 were administered with oral solution formulation of compound K in 5% NMP, 5% solutol HS-15 and 90% normal saline at a dose of 10 mg/kg;
Dosing: 10 mg/kg P.O. and 3 mg/kg I.V.

[6] = Plasma PK of comparative compound without sulfur moiety in male CD1 mice; format: in vivo, mouse; details: Mesylate Salt
Description: Formulation: 10% DMSO, 90% Saline
Dosing: 10 mg/kg P.O. and 5 mg/kg I.V.

PI3K p110α [7] = molecular target: T1, PI3K p110α; assay: Ki determination, non-radiometric ADP-Glo assay (Proqinase GmbH); format: biochemical
Source text: as §1

PI3K p110β [8] = molecular target: T2, PI3K p110β; assay: as above; format: biochemical
Source text: as §1

PI3K p110γ [9] = molecular target: T3, PI3K p110γ; assay: as above; format: biochemical
Source text: as §1

PI3K p110δ [10] = molecular target: T4, PI3K p110δ; assay: as above; format: biochemical
Source text: as §1

[11] = Plasma PK of Example B, oral bioavailability and clearance in male Balb/c mice; format: in vivo, mouse; details: Mesylate Salt
Description: Animals in Group 2 were administered with oral solution formulation of Example B in 5% NMP, 5% Solutol HS and 90% of 20% HPβCD at a dose of 10 mg/kg. Dosing: 10 mg/kg P.O. and 3 mg/kg I.V.

[12] = IV, 3 mg/kg, male Balb/c mouse plasma
[13] = IV, 3 mg/kg, male Balb/c mouse plasma, read-out: Vss
[14] = PO, 10 mg/kg, male Balb/c mouse plasma
[15] = IV, 5 mg/kg, male CD1 mouse plasma

T1 sequence (P42336 whole entry): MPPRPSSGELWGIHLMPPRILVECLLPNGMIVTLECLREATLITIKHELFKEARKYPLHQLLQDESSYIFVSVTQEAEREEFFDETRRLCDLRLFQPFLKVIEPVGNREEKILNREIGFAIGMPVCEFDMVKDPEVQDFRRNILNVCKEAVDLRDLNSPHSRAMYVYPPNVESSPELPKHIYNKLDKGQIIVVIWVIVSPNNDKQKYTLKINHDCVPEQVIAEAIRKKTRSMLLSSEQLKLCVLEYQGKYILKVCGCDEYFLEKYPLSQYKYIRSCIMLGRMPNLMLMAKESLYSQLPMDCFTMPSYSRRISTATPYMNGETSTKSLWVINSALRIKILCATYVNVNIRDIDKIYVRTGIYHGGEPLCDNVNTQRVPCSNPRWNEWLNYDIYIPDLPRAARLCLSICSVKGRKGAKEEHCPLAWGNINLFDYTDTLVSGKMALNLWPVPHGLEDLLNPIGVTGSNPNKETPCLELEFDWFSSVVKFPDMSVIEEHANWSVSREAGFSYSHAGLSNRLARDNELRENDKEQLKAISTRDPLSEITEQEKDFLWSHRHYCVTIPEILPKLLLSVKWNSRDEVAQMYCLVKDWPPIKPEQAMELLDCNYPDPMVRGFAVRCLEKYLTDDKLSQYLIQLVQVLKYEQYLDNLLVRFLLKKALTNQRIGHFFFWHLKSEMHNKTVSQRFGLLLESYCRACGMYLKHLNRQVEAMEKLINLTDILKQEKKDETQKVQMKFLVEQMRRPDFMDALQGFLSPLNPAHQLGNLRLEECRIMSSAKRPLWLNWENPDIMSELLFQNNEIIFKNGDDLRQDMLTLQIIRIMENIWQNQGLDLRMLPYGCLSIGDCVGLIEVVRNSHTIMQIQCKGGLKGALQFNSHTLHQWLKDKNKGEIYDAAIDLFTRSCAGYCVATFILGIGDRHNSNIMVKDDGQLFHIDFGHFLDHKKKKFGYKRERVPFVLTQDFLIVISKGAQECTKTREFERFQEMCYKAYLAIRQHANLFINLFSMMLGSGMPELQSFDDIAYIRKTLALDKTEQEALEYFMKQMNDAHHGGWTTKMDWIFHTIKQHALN
T1 sequence (P27986 whole entry partner): as the sequence (P27986 whole entry partner) above

IC50 (PI3K p110α [1])	IC50 (PI3K p110β [2])	IC50 (PI3K p110γ [3])	IC50 (PI3K p110δ [4])	Ki (PI3K p110α [7])	Ki (PI3K p110β [8])	Ki (PI3K p110γ [9])	Ki (PI3K p110δ [10])	Structure (SMILES)	other results
≤ 500 nM	≤ 500 nM	≤ 500 nM	≤ 500 nM	–	–	–	–	CS(=O)(=O)CCNCc1cnc2oc3c(N4CCOCC4)nc(-c4cccc5[nH]ccc45)nc3c2c1 [Example AD, {[4-(1H-Indol-4-yl)-6-(morpholin-4-yl)-8-oxa-3,5,10-triazatricyclo[7.4.0.0^2^,7]trideca-1(13),2(7),3,5,9,11-hexaen-12-yl]methyl}(2-methanesulfonylethyl)amine]	–
–	–	–	–	–	–	–	–	c1cc(-c2nc(N3CCOCC3)c3oc4ncc(CN5CCOCC5)cc4c3n2)c2cc[nH]c2c1 [compound K in WO 2011/021038]	AUC(0-inf) [5, 12]: 2690 ng·h/mL; AUClast [5, 12]: 2654.15 ng·mL·h; Cmax [5, 12]: 2980 ng/mL; clearance [5, 12]: 18.6 mL/min/kg; half-life [5, 12]: 79.8 min; Vd [5, 13]: 1.81 L/kg; F [5]: 55%; F ([5]; listed as Example K from W02011/021038 (comparative)): 50%; AUC(0-inf) [5, 14]: 5140 ng·h/mL; AUC(0-t) [5, 14]: 4890 ng·h/mL; Cmax [5, 14]: 1720 ng/mL; Tmax [5, 14]: 15 min
≤ 500 nM	≤ 500 nM	500 to 1000 nM	≤ 500 nM	–	–	–	–	O=S1(=O)CCCN(Cc2cnc3oc4c(N5CCOCC5)nc(-c5cccc6[nH]ccc56)nc4c3c2)CC1 [Example AA, 4-{[4-(1H-indol-4-yl)-6-(morpholin-4-yl)-8-oxa-3,5,10-triazatricyclo[7.4.0.0^2,^7]trideca-1(13),2(7),3,5,9,11-hexaen-12-yl]methyl}-1λ^6,4-thiazepane-1,1-dione]	–
–	–	–	–	–	–	–	–	c1cc(-c2nc(N3CCOCC3)c3oc4ncc(CN5CCCCC5)cc4c3n2)c2cc[nH]c2c1	AUClast [6, 15]: 1245 ng·mL·h; clearance [6, 15]: 66.1 mL/min/kg; bioavailability ([6]; plasma, PO 10 mg/kg vs IV 5 mg/kg, male CD1 mouse): 27.8%
≤ 500 nM	≤ 500 nM	500 to 1000 nM	≤ 500 nM	–	–	–	–	c1cc(-c2nc(N3CCOCC3)c3oc4ncc(CN5CCSCC5)cc4c3n2)c2cc[nH]c2c1 [Example AF, 4-(1H-indol-4-yl)-6-(morpholin-4-yl)-12-[(thiomorpholin-4-yl)methyl]-8-oxa-3,5,10-triazatricyclo[7.4.0.0^2^,7]trideca-1(13),2(7),3,5,9,11-hexaene]	–
–	–	–	–	500 to 1000 nM	≤ 500 nM	1000 to 10000 nM	≤ 500 nM	[O-][S+]1CCN(Cc2cnc3oc4c(N5CCOCC5)nc(-c5cccc6[nH]ccc56)nc4c3c2)CC1 [Example B, 4-{[4-(1H-Indol-4-yl)-6-(morpholin-4-yl)-8-oxa-3,5,10-triazatricyclo[7.4.0.0^2,7]trideca-1(13),2(7),3,5,9,11-hexaen-12-yl]methyl}-1λ^4-thiomorpholin-1-one]	AUC(0-inf) [11, 12]: 2940 ng·h/mL; AUClast [11, 12]: 2802.91 ng·mL·h; Cmax [11, 12]: 5320 ng/mL; clearance [11, 12]: 17 mL/min/kg; half-life [11, 12]: 206 min; Vd [11, 13]: 1.44 L/kg; AUC(0-inf) [11, 14]: 7700 ng·h/mL; AUC(0-t) [11, 14]: 7690 ng·h/mL; Cmax [11, 14]: 3830 ng/mL; Tmax [11, 14]: 30 min; bioavailability ([11]; plasma, PO 10 mg/kg vs IV 3 mg/kg, male Balb/c mouse): 82%
≤ 500 nM	≤ 500 nM	≤ 500 nM	≤ 500 nM	–	–	–	–	c1cc(-c2nc(N3CCOCC3)c3oc4ncc(CN5CCSC5)cc4c3n2)c2cc[nH]c2c1 [Example AC, 4-(1H-Indol-4-yl)-6-(morpholin-4-yl)-12-[(1,3-thiazolidin-3-yl)methyl]-8-oxa-3,5,10-triazatricyclo[7.4.0.0^2^,7]trideca-1(13),2(7),3,5,9,11-hexaene]	–
≤ 500 nM	≤ 500 nM	500 to 1000 nM	≤ 500 nM	–	–	–	–	O=S1(=O)CC2(CN(Cc3cnc4oc5c(N6CCOCC6)nc(-c6cccc7[nH]ccc67)nc5c4c3)C2)C1 [Example AB, 6-{[4-(1H-Indol-4-yl)-6-(morpholin-4-yl)-8-oxa-3,5,10-triazatricyclo[7.4.0.0^2^,7]trideca-1(13),2(7),3,5,9,11-hexaen-12-yl]methyl}-2λ^6-thia-6-azaspiro[3.3]heptane-2,2-dione]	–
–	–	–	–	> 10000 nM	> 10000 nM	> 10000 nM	> 10000 nM	N#Cc1c[nH]c2cccc(-c3nc(N4CCOCC4)c4oc5ncc(CN6CC[S+]([O-])CC6)cc5c4n3)c12 [Example AN, 4-[6-(morpholin-4-yl)-12-[(1-oxo-1λ^4-thiomorpholin-4-yl)methyl]-8-oxa-3,5,10-triazatricyclo[7.4.0.0^2,^7]trideca-1(13),2(7),3,5,9,11-hexaen-4-yl]-1H-indole-3-carbonitrile]	–
–	–	–	–	> 10000 nM	> 10000 nM	> 10000 nM	1000 to 10000 nM	[O-][S+]1CCN(Cc2cnc3oc4c(N5CCOCC5)nc(-c5cc(Cl)cc6[nH]ccc56)nc4c3c2)CC1 [Example AM, 4-{[4-(6-Chloro-1H-indol-4-yl)-6-(morpholin-4-yl)-8-oxa-3,5,10-triazatricyclo[7.4.0.0^2^,7]trideca-1(13),2(7),3,5,9,11-hexaen-12-yl]methyl}-1λ^4-thiomorpholin-1-one]	–
–	–	–	–	1000 to 10000 nM	≤ 500 nM	1000 to 10000 nM	≤ 500 nM	[O-][S+]1CCN(Cc2cnc3oc4c(N5CCOCC5)nc(-c5c(F)ccc6[nH]ccc56)nc4c3c2)CC1 [Example E]	–
–	–	–	–	> 10000 nM	> 10000 nM	> 10000 nM	> 10000 nM	O=C1Cc2c(cccc2-c2nc(N3CCOCC3)c3oc4ncc(CN5CC[S+]([O-])CC5)cc4c3n2)N1 [Example N, 4-[6-(morpholin-4-yl)-12-[(1-oxo-1λ^4-thiomorpholin-4-yl)methyl]-8-oxa-3,5,10-triazatricyclo[7.4.0.0^2,^7]trideca-1(13),2(7),3,5,9,11-hexaen-4-yl]-2,3-dihydro-1H-indol-2-one]	–
–	–	–	–	500 to 1000 nM	≤ 500 nM	1000 to 10000 nM	≤ 500 nM	CC(C)Oc1ccc2[nH]ccc2c1-c1nc(N2CCOCC2)c2oc3ncc(CN4CC[S+]([O-])CC4)cc3c2n1 [Example Y, 4-{[6-(Morpholin-4-yl)-4-[5-(propan-2-yloxy)-1H-indol-4-yl]-8-oxa-3,5,10-triazatricyclo[7.4.0.0^2^,7]trideca-1(9),2,4,6,10,12-hexaen-12-yl]methyl}-1λ^4-thiomorpholin-1-one]	–
–	–	–	–	> 10000 nM	1000 to 10000 nM	> 10000 nM	1000 to 10000 nM	[O-][S+]1CCN(Cc2cnc3sc4c(N5CCOCC5)nc(-c5cccc6[nH]ccc56)nc4c3c2)CC1 [Example AK, 4-{[4-(1H-Indol-4-yl)-6-(morpholin-4-yl)-8-thia-3,5,10-triazatricyclo[7.4.0.0^2^,7]trideca-1(9),2,4,6,10,12-hexaen-12-yl]methyl}-1λ^4-thiomorpholin-1-one]	–
–	–	–	–	1000 to 10000 nM	≤ 500 nM	> 10000 nM	≤ 500 nM	[O-][S+]1CCN(Cc2cnc3oc4c(N5CCOCC5)nc(-c5c(Cl)ccc6[nH]ccc56)nc4c3c2)CC1 [Example T, 4-{[4-(5-Chloro-1H-indol-4-yl)-6-(morpholin-4-yl)-8-oxa-3,5,10-triazatricyclo[7.4.0.0^2,7]trideca-1(9),2,4,6,10,12-hexaen-12-yl]methyl}-1λ^4-thiomorpholin-1-one]	–
–	–	–	–	≤ 500 nM	≤ 500 nM	> 10000 nM	≤ 500 nM	N#Cc1ccc2[nH]ccc2c1-c1nc(N2CCOCC2)c2oc3ncc(CN4CC[S+]([O-])CC4)cc3c2n1 [Example W, 4-[6-(morpholin-4-yl)-12-[(1-oxo-1λ^4-thiomorpholin-4-yl)methyl]-8-oxa-3,5,10-triazatricyclo[7.4.0.0^2,^7]trideca-1(9),2,4,6,10,12-hexaen-4-yl]-1H-indole-5-carbonitrile]	–
≤ 500 nM	≤ 500 nM	≤ 500 nM	≤ 500 nM	–	–	–	–	CCS(=O)(=O)CCN(C)Cc1cnc2oc3c(N4CCOCC4)nc(-c4cccc5[nH]ccc45)nc3c2c1 [Example AE]	–
–	–	–	–	≤ 500 nM	≤ 500 nM	> 10000 nM	≤ 500 nM	C[C@@H](c1cnc2oc3c(N4CCOCC4)nc(-c4cccc5[nH]ccc45)nc3c2c1)N1CCS(=O)(=O)CC1 [Example I, 4-[(1S)-1-[4-(1H-Indol-4-yl)-6-(morpholin-4-yl)-8-oxa-3,5,10-triazatricyclo[7.4.0.0^2,7]trideca-1(13),2,4,6,9,11-hexaen-12-yl]ethyl]-1λ^6-thiomorpholine-1,1-dione]	–
